The subject of the assay is MiaPaCa-2 cells. The experiment in a line: In vivo study, MiaPaCa-2 subcutaneous tumor in nude mice. As to conditions: 0.27 mg/kg tail vein injection, 18th day; start 125 mm^3; PBS group 600 mm^3.

Structures are written as SMILES.

Method: In an embodiment, mice (BALB/cAnN.Cg-Foxn1nu/CrlNarl mice) are reared until 6 weeks of age, and 1×10^6 of MiaPaCa-2 cells are subcutaneously injected into the right rear leg of the mice. […] The experiment is performed until the 18th day, and the tumor size is measured every 2 days. The measurement formula of the tumor size is as follows: ½ (L×W^2), wherein L represents the longest diameter of the tumor; W represents the shortest diameter of the tumor.

Take `CC[C@@]1(O)C(=O)OCc2c1cc1n(c2=O)Cc2cc3ccccc3nc2-1` [CPT]: the tumor size came out at 52 mm^3. The figure for `COc1cccc2c1C(=O)c1c(O)c3c(c(O)c1C2=O)C[C@@](O)(C(=O)CO)C[C@@H]3O[C@H]1C[C@H](N)[C@H](O)[C@H](C)O1` [Doxorubicin] is 64 mm^3.

As to `Nc1ccn([C@@H]2O[C@H](CO)[C@@H](O)C2(F)F)c(=O)n1` [Gemzar], the tumor size is listed as 30 mm^3. As for `CC(=O)O[C@@]12CO[C@@H]1C[C@H](O)[C@@]1(C)C(=O)[C@H](O)C3=C(C)[C@@H](OC(=O)[C@H](O)[C@@H](NC(=O)OC(C)(C)C)c4ccccc4)C[C@@](O)([C@@H](OC(=O)c4ccccc4)[C@H]21)C3(C)C` [Taxatere], the tumor size is 68 mm^3.

For the origin of these results see patent US20190350939A1, “CANCER TREATMENT METHOD USING Ni-SOD MIMIC COMPOUND” (NATIONAL CHIAO TUNG UNIVERSITY, priority 2018, published 2019).
